Assay results reported in PubChem BioAssay (NCI).
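A five-concentration, 48-hour dose response in 96-well plates underlies each endpoint, interpolated linearly between surrounding concentrations. GI50 is the concentration that inhibits growth by half. The concentration for full growth arrest is given as TGI.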

How the values were obtained:
Assay in all cases: DTP human tumour cell line panel, 48 h
HT29 colon = system: HT29 colon
A498 renal = system: A498 renal
SN12C renal = system: SN12C renal
COLO 205 colon = system: COLO 205 colon
MALME-3M melanoma = system: MALME-3M melanoma
TK-10 renal = system: TK-10 renal
NCI-H460 lung = system: NCI-H460 lung
NCI-H522 lung = system: NCI-H522 lung
IGROV1 ovarian = system: IGROV1 ovarian
HCT-15 colon = system: HCT-15 colon

Structure (SMILES) | TGI (HT29 colon) [µM] | TGI (A498 renal) [µM] | TGI (SN12C renal) [µM] | TGI (COLO 205 colon) [µM] | TGI (MALME-3M melanoma) [µM] | TGI (TK-10 renal) [µM] | TGI (NCI-H460 lung) [µM] | TGI (NCI-H522 lung) [µM] | TGI (IGROV1 ovarian) [µM] | TGI (HCT-15 colon) [µM] | GI50 (HT29 colon) [µM] | GI50 (A498 renal) [µM] | GI50 (SN12C renal) [µM] | GI50 (COLO 205 colon) [µM] | GI50 (MALME-3M melanoma) [µM] | GI50 (TK-10 renal) [µM] | GI50 (NCI-H460 lung) [µM] | GI50 (NCI-H522 lung) [µM] | GI50 (IGROV1 ovarian) [µM] | GI50 (HCT-15 colon) [µM]
COc1cc(OC)c(-n2[nH]c(=O)n(C)c2=O)c(OC)c1 | > 100 | > 100 | > 100 | > 100 | > 100 | > 100 | > 100 | > 100 | > 100 | > 100 | – | – | – | – | – | – | – | – | – | –
O=C1O/C(=C(\Br)c2ccc([N+](=O)[O-])cc2)c2ccccc21 | > 88.5 | > 100 | > 100 | > 100 | > 100 | > 100 | > 100 | > 88.8 | > 100 | > 81.5 | – | – | – | – | – | – | – | – | – | –
COC(=O)c1sc2nc(Nc3ccccc3)c(=Nc3ccccc3)sc2c1C | > 100 | > 100 | > 100 | > 100 | > 100 | > 100 | > 100 | > 100 | > 100 | > 100 | – | – | – | – | – | – | – | – | – | –
O=C1CC(Nc2ccccc2)c2c(Cl)sc(Cl)c21 (stereo not given) | 3.92 | 6.21 | 2.66 | 2.68 | 2.83 | 3.26 | 24.6 | 0.315 | 3.44 | 2.36 | – | – | – | – | – | – | – | – | – | –
CC1=NN(c2ccccc2)C(=O)/C1=C1\SC(c2ccccc2)(c2ccccc2)c2ccccc21 | > 100 | > 100 | > 100 | > 100 | > 100 | > 100 | > 100 | > 100 | > 100 | > 100 | – | – | – | – | – | – | – | – | – | –
C[C@]12CCC(=O)C=C1CC[C@@H]1[C@@H]2CC[C@]2(C)C(=O)/C(=C/c3ccc([N+](=O)[O-])cc3)C[C@@H]12 | > 100 | 48.9 | > 100 | > 100 | > 100 | > 100 | > 100 | > 100 | > 100 | > 100 | – | – | – | – | – | – | – | – | – | –
O=C(CSc1nc2ccccc2c(=O)n1-c1ccccc1)N=Nc1c(O)[nH]c2ccc(Br)cc12 | 3.7 | 40.8 | 4.22 | > 35.6 | 5.74 | 12.4 | 41.8 | 9.69 | 5.03 | 30.2 | – | – | – | – | – | – | – | – | – | –
CC(=O)N1N=C(c2ccccc2)NC(=O)C1c1cc(C)c(O)c(C)c1 (stereo not given) | > 100 | 67.2 | 79.1 | > 100 | 38.1 | 38.2 | > 100 | 37 | 72.7 | > 100 | – | – | – | – | – | – | – | – | – | –
O=c1[nH]nc(-c2ccc3ccccc3c2)[nH]1 | > 100 | > 100 | > 100 | > 100 | > 100 | > 100 | > 100 | > 100 | > 100 | > 100 | – | – | – | – | – | – | – | – | – | –
COc1cc2ncnc(Nc3cccc(Br)c3)c2cc1OC | 18.8 | 29.4 | > 52.4 | 20.8 | 32.2 | 13.5 | 21.1 | 11.1 | 29.6 | 22.7 | – | – | – | – | – | – | – | – | – | –
Fc1ccc(F)c(C=NC23CC4CC(CC(C4)C2)C3)c1 | > 10 | > 10 | > 10 | > 10 | > 10 | > 10 | > 10 | > 10 | > 10 | > 10 | – | – | – | – | – | – | – | – | – | –
Cc1cc2c(cc1Cl)SSc1cc(Cl)c(C)cc1S(=O)(=O)Nc1nc(N)nn1C(O)n1nc(N)nc1NS2(=O)=O | > 10 | > 10 | > 10 | > 10 | > 10 | > 10 | > 10 | > 10 | > 10 | > 10 | – | – | – | – | – | – | – | – | – | –
c1ccc(CCCN2C3CCC2CN(CCOC(c2ccccc2)c2ccccc2)C3)cc1 | 14.8 | 21.8 | 24.8 | 4.36 | 25.2 | 25.6 | 25.8 | 23 | 27 | 18.1 | – | – | – | – | – | – | – | – | – | –
CN(C)c1ccc(-c2c(C#N)c(-c3ccccc3)n(NS(=O)(=O)c3ccccc3)c(=O)c2C#N)cc1 | > 100 | > 100 | > 100 | > 100 | > 100 | > 100 | > 100 | > 100 | > 100 | > 100 | – | – | – | – | – | – | – | – | – | –
COc1ccccc1C1C(C#N)=C(N)SC(N)=C1C#N | > 100 | > 100 | 42 | > 100 | > 100 | > 100 | > 100 | 76.2 | 70 | > 100 | 37.4 | > 100 | 15.5 | > 100 | 81.3 | > 100 | 49.8 | 29.9 | 11.1 | 81.3
CCOC(=O)c1nc(SC)sc1NC(=O)c1ccc(OC)cc1 | > 100 | 84.6 | > 100 | > 100 | 88.8 | 54.7 | > 100 | > 100 | > 100 | > 100 | – | – | – | – | – | – | – | – | – | –
